12 molecules from ChEMBL document CHEMBL1128156, “Potent dual antagonists of endothelin and angiotensin II receptors derived from -phenoxyphenylacetic acids (Part III)” (Bioorg Med Chem Lett, 1995) can be followed below.

In test [1] the target is T1, Endothelin receptor type B (Homo sapiens, UniProt P24530).
T1 sequence (P24530 whole entry): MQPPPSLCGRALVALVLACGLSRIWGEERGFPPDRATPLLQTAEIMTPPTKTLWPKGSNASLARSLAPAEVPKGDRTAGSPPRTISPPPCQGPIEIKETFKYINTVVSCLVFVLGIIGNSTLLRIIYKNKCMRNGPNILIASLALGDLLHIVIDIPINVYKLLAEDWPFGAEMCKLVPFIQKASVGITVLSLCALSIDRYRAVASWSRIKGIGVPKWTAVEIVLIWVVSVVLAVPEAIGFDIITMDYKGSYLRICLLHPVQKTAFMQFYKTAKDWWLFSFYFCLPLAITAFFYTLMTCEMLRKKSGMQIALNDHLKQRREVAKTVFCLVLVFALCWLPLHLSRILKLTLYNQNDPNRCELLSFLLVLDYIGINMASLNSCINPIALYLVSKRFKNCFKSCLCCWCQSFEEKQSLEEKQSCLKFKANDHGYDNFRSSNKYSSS
Briefly: Inhibition of human endothelin B (ETB) receptor expressed in CHO cells. In kind it is cell-based.

In a further test the target is T2, Endothelin-1 receptor (Homo sapiens, UniProt P25101).
T2 sequence (P25101 whole entry): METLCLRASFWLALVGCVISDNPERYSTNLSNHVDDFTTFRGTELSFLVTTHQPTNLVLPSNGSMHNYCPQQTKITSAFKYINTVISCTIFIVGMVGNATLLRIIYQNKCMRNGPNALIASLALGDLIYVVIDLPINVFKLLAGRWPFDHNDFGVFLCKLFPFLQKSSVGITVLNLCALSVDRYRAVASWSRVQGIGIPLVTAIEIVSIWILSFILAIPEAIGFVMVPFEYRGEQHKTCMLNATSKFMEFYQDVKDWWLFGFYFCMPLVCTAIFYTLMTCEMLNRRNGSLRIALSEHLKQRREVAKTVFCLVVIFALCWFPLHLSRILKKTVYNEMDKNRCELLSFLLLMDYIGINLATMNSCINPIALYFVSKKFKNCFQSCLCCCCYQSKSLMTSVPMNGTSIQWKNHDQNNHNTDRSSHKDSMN
Briefly: Inhibition of human endothelin A (ETA) receptor expressed in CHO cells. In kind it is cell-based.

Structures are written as SMILES.

Take `CCCc1cc(Cn2c(CC)nc3c(C)cc(C)nc32)cc(CCC)c1OC(C(=O)NS(=O)(=O)c1ccc(CC(C)C)s1)c1ccc2c(c1)OCO2` (centres undefined): the IC50 in test [1] was 0.42 µM; at Endothelin-1 receptor it was 0.6 µM.
Consider `CCCc1cc(Cn2c(CC)nc3c(C)cc(C)nc32)cc(CCC)c1OC(C(=O)NS(=O)(=O)c1ccc(C(C)C)cc1)c1ccc2c(c1)OCO2` (centres undefined), for which the half-maximal inhibitory concentration (IC50) in test [1] turned out to be 1.3 µM; against Endothelin-1 receptor it was 0.33 µM.
In the same order, the values of `CCCc1cc(Cn2c(CC)nc3c(C)cc(C)nc32)ccc1OC(C(=O)O)c1ccccc1` (centres undefined) are 47 µM and 11 µM.
Taken in the same sequence, the figures for `CCCc1cc(Cn2c(CC)nc3c(C)cc(C)nc32)cc(CCC)c1OC(C(=O)NS(=O)(=O)C(C)C)c1ccc2c(c1)OCO2` (centres undefined) were 1.9 µM and 0.7 µM.
As to `CCCc1cc(Cn2c(CC)nc3c(C)cc(C)nc32)cc(CCC)c1OC(C(=O)NS(C)(=O)=O)c1ccc2c(c1)OCO2` (centres undefined), the results for the concentration for half-maximal inhibition (IC50) (in test [1]; on Endothelin-1 receptor) were 1.2 µM and 0.5 µM, respectively.
In the same order, the values of `CCCc1cc(Cn2c(CC)nc3c(C)cc(C)nc32)ccc1OC(C(=O)O)c1ccc2c(c1)OCO2` (centres undefined) are 1.6 µM and 0.84 µM.
With `CCCc1cc(Cn2c(CC)nc3c(C)cc(C)nc32)cc(CCC)c1OC(C(=O)NS(=O)(=O)c1ccccc1)c1ccc2c(c1)OCO2` (centres undefined), the half-maximal inhibitory concentration (IC50) amounted to 0.8 µM in test [1] and 1.6 µM on Endothelin-1 receptor.
Taken in the same sequence, the figures for `CCCc1cc(Cn2c(CC)nc3c(C)cc(C)nc32)cc(CCC)c1OC(C(=O)O)c1ccc2c(c1)OCO2` (centres undefined) were 0.23 µM and 0.038 µM.
Taken in the same sequence, the figures for `CCCc1cc(Cn2c(CC)nc3c(C)cc(C)nc32)cc(CCC)c1OC(C(=O)O)c1cc(Br)c(OC)c(OC)c1Br` (centres undefined) were 31 µM and 11 µM.
Consider `CCCc1cc(Cn2c(CC)nc3c(C)cc(C)nc32)ccc1OC(C(=O)NS(=O)(=O)c1ccc(C(C)C)cc1)c1ccc2c(c1)OCO2` (centres undefined), for which the values for the half-inhibitory concentration (IC50) (in test [1]; against Endothelin-1 receptor) were 0.06 µM and 0.024 µM, respectively.
As to `CCCc1cc(Cn2c(CC)nc3c(C)cc(C)nc32)cc(CCC)c1OC(C(=O)NS(=O)(=O)c1cccs1)c1ccc2c(c1)OCO2` (centres undefined), the figures for the IC50 (in test [1]; against Endothelin-1 receptor) were 0.54 µM and 0.82 µM, respectively.
Taken in the same sequence, the figures for `CCCc1cc(Cn2c(CC)nc3c(C)cc(C)nc32)ccc1OC(C(=O)NS(=O)(=O)c1ccc(CC(C)C)s1)c1ccc2c(c1)OCO2` (centres undefined) were 0.09 µM and 0.075 µM.
